Literature values in US20070191305A1, “Chromone complexes” (priority 2004, published 2007).

Experiments:
[1] = over the entire pH range

Compound	cell differentiation (keratinocyte cultures)	lipid production (keratinocyte cultures)	antioxidant activity amongst the hydroxyflavones investigated [1]
O=C1CCOc2ccccc21 [Example 4-chromanone, 4-chromanone]	promotes cell differentiation	stimulates lipid production	
O=c1c(O)c(-c2ccc(O)c(O)c2)oc2cc(O)cc(O)c12 [Quercetin, 3,3′,4′,5,7-pentahydroxyflavone]			greatest activity
